Measurements: the supplement of paper PMC10307832

Experiments:
Assay in all cases: relative viability (nuclei count vs DMSO), 5 days (fraction); higher = more cells survive
GSK126 + Navitoclax = compound: CC[C@H](C)N1C=C(C2=C(C=C(C=C21)C3=CN=C(C=C3)N4CCNCC4)C(=O)NCC5=C(C=C(NC5=O)C)C)C [GSK126] + CC1(C)CCC(c2ccc(Cl)cc2)=C(CN2CCN(c3ccc(C(=O)NS(=O)(=O)c4ccc(N[C@H](CCN5CCOCC5)CSc5ccccc5)c(S(=O)(=O)C(F)(F)F)c4)cc3)CC2)C1 [Navitoclax] (partner 0.5 µM)
Procedure, shortened: (§1)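 Medians of duplicate plates are given as relative viability. That measure is the nuclei count in treated wells divided by the count in vehicle wells. Counts were taken on 4× images of lung cancer cell lines in 1536-well plates, 5 days after pin-tool dosing the day after seeding with one drug alone or a fixed anchor-drug dose plus five library-drug doses (not always all listed) in √10 steps.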

MLN4924 + Palbociclib = compound: NS(=O)(=O)OC[C@@H]1C[C@@H](n2ccc3c(N[C@H]4CCc5ccccc54)ncnc32)C[C@@H]1O [MLN4924] + CC(=O)c1c(C)c2cnc(Nc3ccc(N4CCNCC4)cn3)nc2n(C2CCCC2)c1=O [Palbociclib] (partner 0.5 µM)
Procedure, shortened: as §1

MLN4924 + Luminespib = compound: NS(=O)(=O)OC[C@@H]1C[C@@H](n2ccc3c(N[C@H]4CCc5ccccc54)ncnc32)C[C@@H]1O [MLN4924] + CCNC(=O)c1noc(-c2cc(C(C)C)c(O)cc2O)c1-c1ccc(CN2CCOCC2)cc1 [Luminespib] (partner 0.01 µM)
Procedure, shortened: as §1

MLN4924 + Lapatinib = compound: NS(=O)(=O)OC[C@@H]1C[C@@H](n2ccc3c(N[C@H]4CCc5ccccc54)ncnc32)C[C@@H]1O [MLN4924] + CS(=O)(=O)CCNCc1ccc(-c2ccc3ncnc(Nc4ccc(OCc5cccc(F)c5)c(Cl)c4)c3c2)o1 [Lapatinib] (partner 2 µM)
Procedure, shortened: as §1

| Cell Line | relative viability (GSK126 + Navitoclax; first compound 0.08 µM) | relative viability (GSK126 + Navitoclax; first compound 0.253 µM) | relative viability (GSK126 + Navitoclax; first compound 0.8 µM) | relative viability (GSK126 + Navitoclax; first compound 2.53 µM) | relative viability (GSK126 + Navitoclax; first compound 8 µM) | relative viability (MLN4924 + Palbociclib; first compound 0.04 µM) | relative viability (MLN4924 + Palbociclib; first compound 0.1265 µM) | relative viability (MLN4924 + Palbociclib; first compound 0.4 µM) | relative viability (MLN4924 + Palbociclib; first compound 1.265 µM) | relative viability (MLN4924 + Palbociclib; first compound 4 µM) | relative viability (MLN4924 + Luminespib; first compound 0.04 µM) | relative viability (MLN4924 + Luminespib; first compound 0.1265 µM) | relative viability (MLN4924 + Luminespib; first compound 0.4 µM) | relative viability (MLN4924 + Luminespib; first compound 1.265 µM) | relative viability (MLN4924 + Luminespib; first compound 4 µM) | relative viability (MLN4924 + Lapatinib; first compound 0.04 µM) | relative viability (MLN4924 + Lapatinib; first compound 0.1265 µM) | relative viability (MLN4924 + Lapatinib; first compound 0.4 µM) | relative viability (MLN4924 + Lapatinib; first compound 1.265 µM) | relative viability (MLN4924 + Lapatinib; first compound 4 µM) |
| --- | --- | --- | --- | --- | --- | --- | --- | --- | --- | --- | --- | --- | --- | --- | --- | --- | --- | --- | --- | --- |
| NCI-H2347 | 1.03 | 0.679 | 0.688 | 0.799 | 0.772 | 0.426 | 0.46 | 0.399 | 0.312 | 0.339 | 0.397 | 0.351 | 0.575 | 0.332 | 0.255 | 0.746 | 0.897 | 0.487 | 0.338 | 0.412 |
| NCI-H2405 | 0.76 | 0.708 | 0.805 | 0.895 | 0.552 | 0.516 | 0.456 | 0.41 | 0.22 | 0.252 | 0.608 | 0.469 | 0.518 | 0.286 | 0.241 | 1.26 | 1.05 | 0.511 | 0.192 | 0.195 |
| NCI-H3122 | 1.04 | 1.06 | 1.05 | 1 | 1.02 | 0.162 | 0.0893 | 0.129 | 0.0849 | 0.0684 | 0.078 | 0.063 | 0.0724 | 0.0583 | 0.0491 | 0.991 | 0.629 | 0.293 | 0.177 | 0.206 |
| PC-3 [JPC-3] | 0.877 | 0.862 | 0.874 | 0.76 | 0.753 | 0.556 | 0.53 | 0.373 | 0.346 | 0.46 | 0.799 | 0.773 | 0.552 | 0.346 | 0.327 | 0.478 | 0.51 | 0.277 | 0.261 | 0.262 |
| PC-14 | 1.04 | 0.998 | 1.02 | 0.95 | 0.804 | 0.463 | 0.416 | 0.138 | 0.0525 | 0.0516 | 0.151 | 0.164 | 0.114 | 0.116 | 0.152 | 0.382 | 0.655 | 0.395 | 0.157 | 0.136 |
| RERF-LC-KJ | 1.29 | 1.02 | 1.18 | 0.956 | 0.828 | 0.875 | 0.363 | 0.184 | 0.152 | 0.218 | 1.01 | 0.629 | 0.328 | 0.265 | 0.272 | 0.746 | 0.555 | 0.227 | 0.191 | 0.221 |
| SK-LU-1 | 0.857 | 0.819 | 0.911 | 0.915 | 0.855 | 0.467 | 0.43 | 0.253 | 0.195 | 0.202 | 0.18 | 0.228 | 0.215 | 0.186 | 0.147 | 0.703 | 0.491 | 0.299 | 0.19 | 0.181 |
| SK-MES-1 | 1.4 | 1.27 | 1.1 | 1.33 | 1.16 | 0.294 | 0.207 | 0.225 | 0.128 | 0.203 | 0.866 | 0.694 | 0.551 | 0.173 | 0.195 | 0.534 | 0.722 | 0.486 | 0.281 | 0.212 |
| SW 1573 | 0.894 | 0.955 | 1.2 | 1.06 | 1.07 | 0.375 | 0.306 | 0.155 | 0.0802 | 0.0896 | 0.259 | 0.365 | 0.0849 | 0.0812 | 0.0892 | 0.781 | 1.1 | 0.565 | 0.13 | 0.114 |
